Results from publication PMC8163982, “Partial agonism improves the anti-hyperglycaemic efficacy of an oxyntomodulin-derived GLP-1R/GCGR co-agonist” (Molecular Metabolism, 2021).
Where a SMILES comes first, the peptide text is derived from it. [ ]: non-standard residue; d: D form. Aib = CC(C)(N)C(=O)O

Legend:
Assay type in all cases: cell-based
GLP-1R [1] = molecular target: T1, GLP-1R (Homo sapiens, UniProt P43220); assay: NanoBiT β-arrestin-2 recruitment to GLP-1R-SmBiT in HEK293T cells; conditions: SRB103 pair, mean ± SEM, n = 6; for Emax: HEK-293T, normalised to full agonist response, read-out: GLP-1R βarr2 (HEK293T) Emax; for EC50: 3-parameter fit, read-out: GLP-1R βarr2 (HEK293T) pEC50 (converted)
T1 sequence (P43220 24-463): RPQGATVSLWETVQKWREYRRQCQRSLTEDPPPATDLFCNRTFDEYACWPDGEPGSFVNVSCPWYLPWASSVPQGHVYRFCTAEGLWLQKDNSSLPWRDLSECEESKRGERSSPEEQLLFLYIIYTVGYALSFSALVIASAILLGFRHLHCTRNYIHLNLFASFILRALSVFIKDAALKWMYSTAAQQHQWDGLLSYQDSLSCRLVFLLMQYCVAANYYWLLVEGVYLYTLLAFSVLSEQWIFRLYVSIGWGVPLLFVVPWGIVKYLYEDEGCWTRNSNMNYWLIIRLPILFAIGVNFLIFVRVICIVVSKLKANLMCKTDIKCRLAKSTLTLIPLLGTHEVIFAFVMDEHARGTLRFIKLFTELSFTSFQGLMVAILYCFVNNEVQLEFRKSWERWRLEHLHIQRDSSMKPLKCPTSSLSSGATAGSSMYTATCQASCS
Experimental: The assay was performed as previously described. […] (gifts from Professor Nevin Lambert, Medical College of Georgia) or 0.05 μg of GLP-1R-SmBiT and 0.05 μg of LgBiT-β-arrestin-2 (Promega) plus 0.9 μg of pcDNA3.1 for 24 h. The cells were detached with EDTA, resuspended in HBSS, and furimazine (Promega) was added at a 1:50 dilution from the manufacturer's pre-prepared stock. After dispensing into 96-well white plates, a baseline read of the luminescent signals was serially recorded for 5 min using a FlexStation 3 instrument at 37 °C before the indicated concentration of ligand was added, after which the signals were repeatedly recorded for 30 min. […] Bias was calculated using two approaches. First, the log max/EC50 method was used, with the ratio of Emax to EC50 from 3-parameter fits for each ligand used to quantify agonism. After log10 transformation, responses were expressed relative to the reference agonist on a per assay basis to obtain Δlog(Emax/EC50) for each pathway. Pathway-specific values were then expressed relative to each other to obtain ΔΔlog(Emax/EC50), that is, the log bias factor. Second, a method derived from kinetic curve fitting was used. Here, kinetic responses for a single maximal agonist concentration were normalised at each time point to the vehicle response prior to curve fitting. Mini-Gs responses were fitted using the one-phase exponential association equation in Prism 8.0. β-arrestin-2 responses were fitted using the biexponential equation described in [29]. […] Pathway-specific values were then expressed relative to each other to obtain ΔΔlog kτ , that is, the log bias factor.

GCGR [2] = molecular target: T2, GCGR (Homo sapiens, UniProt P47871); assay: NanoBiT β-arrestin-2 recruitment to GCGR-SmBiT in HEK293T cells; parameters: expressed in transfected cells; host or cells: HEK293T; conditions: SRB103 pair, mean ± SEM, n = 6; for Emax: HEK-293T, normalised to full agonist response, read-out: GCGR βarr2 (HEK293T) Emax; for EC50: 3-parameter fit, read-out: GCGR βarr2 (HEK293T) pEC50 (converted)
T2 sequence (P47871 26-477): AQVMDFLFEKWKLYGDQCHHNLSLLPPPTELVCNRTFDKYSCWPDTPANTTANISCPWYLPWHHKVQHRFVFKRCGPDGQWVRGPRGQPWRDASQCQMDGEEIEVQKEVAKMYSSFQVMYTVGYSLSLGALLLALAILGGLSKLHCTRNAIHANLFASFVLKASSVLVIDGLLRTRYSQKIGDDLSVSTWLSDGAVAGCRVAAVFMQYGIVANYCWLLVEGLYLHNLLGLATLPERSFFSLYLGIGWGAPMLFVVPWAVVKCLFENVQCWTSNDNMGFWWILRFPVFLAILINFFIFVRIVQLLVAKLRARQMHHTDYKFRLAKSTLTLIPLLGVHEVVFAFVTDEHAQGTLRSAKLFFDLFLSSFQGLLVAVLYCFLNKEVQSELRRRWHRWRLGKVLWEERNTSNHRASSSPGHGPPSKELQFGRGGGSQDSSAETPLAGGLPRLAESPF

SNAP-GLP-1R = molecular target: T3, SNAP-GLP-1R (Homo sapiens, UniProt P43220); assay: High content imaging assay for SNAP-GLP-1R internalisation; conditions: high content analysis, mean ± SEM, n = 4, read-out: HCA assay (HEK293-SNAP-GLP-1R) pEC50 (converted)
T3 construct: expressed in transfected cells
T3 sequence (P43220 24-463): as the sequence (P43220 24-463) above
Experimental: The assay was adapted from a previously described method. HEK293T cells were seeded in black clear-bottom plates coated with 0.1% poly-D-lysine and assayed 24 h after transfection with SNAP-tagged GLP-1R or GCGR plasmid DNA (0.1 μg per well). The cells were labelled with the cleavable SNAP-tag probe BG-S-S-549 (a gift from New England Biolabs) in complete medium for 30 min at room temperature. After washing, fresh serum-free medium ± agonist was added. At the end of incubation, the medium was removed and the wells were treated with for 5 min at 4 °C with Mesna (100 mM in alkaline TNE buffer at a pH of 8.6) to remove BG-S-S-549 bound to residual surface receptors without affecting the internalised receptor population or with alkaline TNE buffer alone. After washing, phase contrast and epifluorescence cellular imaging at 20× magnification was performed, followed by processing as previously described to quantify the amount of internalised receptor from the fluorescence intensity readings.

GCGR [3] = molecular target: T2, GCGR; assay: cAMP accumulation in Huh7-GCGR cells; parameters: expressed in transfected cells; host or cells: Huh7; conditions: mean ± SEM, n = 6; for Emax: expressed relative to 10 μM forskolin response
Experimental: (§1) HEK293T cells were maintained in DMEM supplemented with 10% FBS and 1% penicillin/streptomycin. PathHunter CHO–K1-βarr2-EA cells stably expressing human GLP-1R, GCGR, or GIPR and PathHunter CHO–K1-βarr1-EA cells stably expressing GCGR were obtained from DiscoverX and maintained in Ham's F12 medium with 10% FBS and 1% penicillin/streptomycin. Stable HEK293-SNAP-GLP-1R cells were maintained in DMEM supplemented with 10% FBS, 1% penicillin/streptomycin, and 1 mg/ml of G418. INS-1 832/3 cells, a gift from Professor Chris Newgard (Duke University), were maintained in RPMI with 11 mM of glucose supplemented with 10% FBS, 10 mM of HEPES, 1 mM of pyruvate, 50 μM of β-mercaptoethanol, and 1% penicillin/streptomycin. Huh7 cells stably expressing human GCGR (Huh7-GCGR) were maintained in DMEM supplemented with 10% FBS, 1 mg/ml of G418, and 1% penicillin/streptomycin.
(§2) PathHunter cells were stimulated with the indicated concentration of agonist for 30 min at 37 °C in serum-free medium without phosphodiesterase inhibitors. INS-1 832/3 cells were stimulated with the indicated concentration of agonist for 10 min at 37 °C in serum-free medium with 100 μM of 3-isobutyl-1-methylxanthine (IBMX). Primary dispersed mouse islet cells prepared by triturating intact islets in 0.05% trypsin/EDTA for 3 min at 37 °C were stimulated with the indicated concentration of agonist for 5 min at 37 °C in serum-free medium with 11 mM of glucose and 500 μM of IBMX. Primary mouse hepatocytes were stimulated in serum-free medium with 100 μM of IBMX for 10 min or 16 h in serum-free medium with 100 μM of IBMX added for the final 10 min of incubation. Huh7-GCGR cells were stimulated in serum-free medium without phosphodiesterase inhibitors for 10 min or for 16 h in serum-free medium. Where relevant, forskolin (10 μM) was added as a positive or normalisation control. At the end of each incubation, cAMP was then assayed by HTRF (Cisbio cAMP Dynamic 2) and concentration-response curves were constructed with 3-parameter curve fitting using Prism 8.0.

GLP-1R [4] = molecular target: T1, GLP-1R; assay: cAMP production (HTRF) in PathHunter CHO-K1 cells expressing GLP-1R; parameters: host or cells: PathHunter CHO-K1-βarr2-EA; conditions: 30 min, mean ± SEM, n = 6; for EC50: 37 °C, serum-free medium, no phosphodiesterase inhibitors, read-out: GLP-1R cAMP (CHO–K1) pEC50 (converted); for Emax: CHO-K1, normalised to globally fitted maximum response
Experimental: as §1, §2

[5] = 16 h, read-out: Huh7-GCGR cAMP,16 h Emax
[6] = 16 h, read-out: Huh7-GCGR cAMP,16 h pEC50 (converted)
[7] = Huh7-GCGR cAMP, 10 min pEC50, 10 min, no phosphodiesterase inhibitors
[8] = read-out: Huh7-GCGR cAMP, 10 min Emax, 10 min

Row | SMILES | Emax (GLP-1R [1]) [%] | EC50 (GLP-1R [1]) [nM] | Emax (GCGR [2]) [%] | EC50 (GCGR [2]) [nM] | EC50 (SNAP-GLP-1R) [nM] | Emax (GCGR [3]; [5]) [%] | EC50 (GCGR [3]; [6]) [nM] | EC50 (GCGR [3]; [7]) [nM] | Emax (GCGR [3]; [8]) [%] | EC50 (GLP-1R [4]) [nM] | Emax (GLP-1R [4]) [%]
1 | CC[C@H](C)[C@H](NC(=O)[C@H](Cc1ccccc1)NC(=O)[C@H](CCC(=O)O)NC(=O)[C@H](CCC(N)=O)NC(=O)[C@H](C)NC(=O)[C@H](CCCNC(=N)N)NC(=O)[C@H](CCCCN)NC(=O)[C@H](C)NC(=O)[C@H](CC(=O)O)NC(=O)[C@H](CC(C)C)NC(=O)[C@H](Cc1ccc(O)cc1)NC(=O)[C@H](CCCCN)NC(=O)[C@H](CO)NC(=O)[C@H](Cc1ccc(O)cc1)NC(=O)[C@H](CC(=O)O)NC(=O)[C@H](CO)NC(=O)[C@@H](NC(=O)[C@H](Cc1ccccc1)NC(=O)[C@@H](NC(=O)CNC(=O)[C@H](Cc1c[nH]cn1)NC(=O)C(C)(C)NC(=O)[C@@H](N)Cc1c[nH]cn1)[C@@H](C)O)[C@@H](C)O)C(=O)N[C@@H](CCC(=O)O)C(=O)N[C@@H](Cc1c[nH]c2ccccc12)C(=O)N[C@@H](CC(C)C)C(=O)N[C@@H](CC(C)C)C(=O)N[C@@H](C)C(=O)NCC(=O)N[C@@H](Cc1c[nH]cn1)C(=O)N[C@@H](Cc1c[nH]cn1)C(=O)N[C@@H](Cc1c[nH]cn1)C(=O)N[C@@H](Cc1c[nH]cn1)C(=O)N[C@@H](Cc1c[nH]cn1)C(=O)N1CCC[C@H]1C(=O)N[C@@H](CO)C(=O)N[C@@H](Cc1c[nH]c2ccccc12)C(=O)O [SRB103H] (H-H[Aib]HGTFTSDYSKYLDAKRAQEFIEWLLAGHHHHHPSW-OH) | 100 | 398 | 100 | 31.6 | 7.94 | 173 ± 11 | 0.251 | 0.0316 | 27 ± 4 | 0.316 | 99 ± 4
2 | CC[C@H](C)[C@H](NC(=O)[C@H](Cc1ccccc1)NC(=O)[C@H](CCC(=O)O)NC(=O)[C@H](CCC(N)=O)NC(=O)[C@H](C)NC(=O)[C@H](CCCNC(=N)N)NC(=O)[C@H](CCCCN)NC(=O)[C@H](C)NC(=O)[C@H](CC(=O)O)NC(=O)[C@H](CC(C)C)NC(=O)[C@H](Cc1ccc(O)cc1)NC(=O)[C@H](CCCCN)NC(=O)[C@H](CO)NC(=O)[C@H](Cc1ccc(O)cc1)NC(=O)[C@H](CC(=O)O)NC(=O)[C@H](CO)NC(=O)[C@@H](NC(=O)[C@H](Cc1ccccc1)NC(=O)[C@@H](NC(=O)CNC(=O)[C@H](CCC(N)=O)NC(=O)C(C)(C)NC(=O)[C@@H](N)Cc1c[nH]cn1)[C@@H](C)O)[C@@H](C)O)C(=O)N[C@@H](CCC(=O)O)C(=O)N[C@@H](Cc1c[nH]c2ccccc12)C(=O)N[C@@H](CC(C)C)C(=O)N[C@@H](CC(C)C)C(=O)N[C@@H](C)C(=O)NCC(=O)N[C@@H](Cc1c[nH]cn1)C(=O)N[C@@H](Cc1c[nH]cn1)C(=O)N[C@@H](Cc1c[nH]cn1)C(=O)N[C@@H](Cc1c[nH]cn1)C(=O)N[C@@H](Cc1c[nH]cn1)C(=O)N1CCC[C@H]1C(=O)N[C@@H](CO)C(=O)N[C@@H](Cc1c[nH]c2ccccc12)C(=O)O [SRB103Q] (H-H[Aib]QGTFTSDYSKYLDAKRAQEFIEWLLAGHHHHHPSW-OH) | 60 ± 2 | 200 | 77 ± 2 | 50.1 | 2.51 | 284 ± 38 | 0.2 | 0.0158 | 27 ± 4 | 0.316 | 103 ± 2
